In one experiment the test system is rat T cells. Description: IL-2 secretion in rat T cells. Particulars: T-cell, FIG. 5, read-out: IC50 for inhibition of IL-2 secretion. The experiment is classed as cell-based.
The next experiment deals with Jurkat T cells. The experiment can be described thus: IL-2 secretion from Jurkat T cells (PHA+TPA, ELISA). It counts as cell-based. The procedure: To measure IL-2 secretion from Jurkat T cells, cells were plated in a 96 well plate at a density of 1.5×10^5 cells/well. Cells were stimulated with 2.5 μg/ml PHA lectin+80 nM TPA for 20 hr in the presence or absence of a compound of Formula (I) or Formula (II). The medium was then collected and analyzed for IL-2 levels by ELISA (BioSource) according to the manufacturer's protocols.

In the next experiment the test system is HEK[STIM1] cells. The experiment can be described thus: STIM1-dependent Ca2+ entry in STIM1-overexpressing cells. The experiment is classed as cell-based, human. Conditions: HEK293 overexpressing STIM1, no Tg store depletion; FIG. 13. The procedure: To test whether the Ca^2+ entry pathway activated by STIM1 overexpression is pharmacologically similar to endogenous SOCE, HEK[STIM1] cells were pre-incubated with increasing doses of 2-APB and STIM1-dependent Ca^2+ entry was measured.

The target in a further experiment is T1, hCav.1.2/β2/α2δ channels (Homo sapiens, UniProt Q13936).
T1 construct: host or cells: CHO cells
T1 sequence (Q13936 whole entry): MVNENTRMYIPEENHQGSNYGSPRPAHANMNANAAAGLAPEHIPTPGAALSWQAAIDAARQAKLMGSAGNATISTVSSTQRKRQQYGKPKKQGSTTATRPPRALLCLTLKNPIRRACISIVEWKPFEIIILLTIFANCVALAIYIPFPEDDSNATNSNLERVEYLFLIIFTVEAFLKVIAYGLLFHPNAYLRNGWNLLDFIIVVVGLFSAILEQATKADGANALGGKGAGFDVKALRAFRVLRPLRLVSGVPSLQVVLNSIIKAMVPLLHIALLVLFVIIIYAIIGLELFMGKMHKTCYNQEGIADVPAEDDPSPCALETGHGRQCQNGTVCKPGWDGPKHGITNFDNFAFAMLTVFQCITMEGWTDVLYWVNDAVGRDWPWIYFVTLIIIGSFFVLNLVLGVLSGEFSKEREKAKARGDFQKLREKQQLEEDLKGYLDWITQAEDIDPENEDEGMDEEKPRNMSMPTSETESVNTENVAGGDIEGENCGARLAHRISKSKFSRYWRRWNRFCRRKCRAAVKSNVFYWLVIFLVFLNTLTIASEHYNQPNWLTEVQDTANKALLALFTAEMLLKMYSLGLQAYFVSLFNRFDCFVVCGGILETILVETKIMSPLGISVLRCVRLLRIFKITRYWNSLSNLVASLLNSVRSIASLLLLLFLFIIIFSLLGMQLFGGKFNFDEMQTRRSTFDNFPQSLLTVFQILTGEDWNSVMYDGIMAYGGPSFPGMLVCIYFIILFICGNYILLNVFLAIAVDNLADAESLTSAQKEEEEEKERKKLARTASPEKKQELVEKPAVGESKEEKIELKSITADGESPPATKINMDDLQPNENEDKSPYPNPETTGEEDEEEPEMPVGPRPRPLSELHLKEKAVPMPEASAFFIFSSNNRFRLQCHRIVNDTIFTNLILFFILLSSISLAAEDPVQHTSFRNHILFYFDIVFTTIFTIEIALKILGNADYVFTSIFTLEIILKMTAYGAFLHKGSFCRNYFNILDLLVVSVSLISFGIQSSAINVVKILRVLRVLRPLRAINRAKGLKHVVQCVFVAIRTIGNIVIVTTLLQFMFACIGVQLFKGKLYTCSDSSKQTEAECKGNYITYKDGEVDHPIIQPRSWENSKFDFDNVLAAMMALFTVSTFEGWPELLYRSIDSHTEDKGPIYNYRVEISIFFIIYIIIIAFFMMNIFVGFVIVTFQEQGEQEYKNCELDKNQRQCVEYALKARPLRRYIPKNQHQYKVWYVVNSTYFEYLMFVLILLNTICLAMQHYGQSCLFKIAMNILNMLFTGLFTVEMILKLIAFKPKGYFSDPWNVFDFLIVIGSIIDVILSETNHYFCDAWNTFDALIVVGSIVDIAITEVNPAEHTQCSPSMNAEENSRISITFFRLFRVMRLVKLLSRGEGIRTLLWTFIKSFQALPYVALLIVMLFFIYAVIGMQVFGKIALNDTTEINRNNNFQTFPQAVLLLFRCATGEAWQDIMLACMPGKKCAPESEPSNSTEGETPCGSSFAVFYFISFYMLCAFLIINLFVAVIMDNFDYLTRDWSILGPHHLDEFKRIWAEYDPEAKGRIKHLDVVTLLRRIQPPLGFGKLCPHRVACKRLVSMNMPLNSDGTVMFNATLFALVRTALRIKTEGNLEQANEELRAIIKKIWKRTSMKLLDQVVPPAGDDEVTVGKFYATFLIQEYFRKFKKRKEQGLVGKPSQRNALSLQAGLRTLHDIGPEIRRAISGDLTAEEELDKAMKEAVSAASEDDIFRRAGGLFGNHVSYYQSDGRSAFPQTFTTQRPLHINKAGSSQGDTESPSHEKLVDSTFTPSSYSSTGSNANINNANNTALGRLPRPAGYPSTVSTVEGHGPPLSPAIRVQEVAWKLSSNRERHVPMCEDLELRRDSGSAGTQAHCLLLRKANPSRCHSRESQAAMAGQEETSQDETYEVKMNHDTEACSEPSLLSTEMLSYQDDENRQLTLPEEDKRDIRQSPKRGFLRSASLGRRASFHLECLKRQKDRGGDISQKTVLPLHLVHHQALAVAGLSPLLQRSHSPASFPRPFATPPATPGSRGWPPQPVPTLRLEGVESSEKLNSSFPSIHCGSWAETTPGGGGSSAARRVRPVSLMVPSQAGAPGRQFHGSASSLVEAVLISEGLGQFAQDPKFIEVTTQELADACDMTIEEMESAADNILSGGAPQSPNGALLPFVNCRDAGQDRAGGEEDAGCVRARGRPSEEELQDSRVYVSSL
T1 sequence (Q08289 whole entry partner): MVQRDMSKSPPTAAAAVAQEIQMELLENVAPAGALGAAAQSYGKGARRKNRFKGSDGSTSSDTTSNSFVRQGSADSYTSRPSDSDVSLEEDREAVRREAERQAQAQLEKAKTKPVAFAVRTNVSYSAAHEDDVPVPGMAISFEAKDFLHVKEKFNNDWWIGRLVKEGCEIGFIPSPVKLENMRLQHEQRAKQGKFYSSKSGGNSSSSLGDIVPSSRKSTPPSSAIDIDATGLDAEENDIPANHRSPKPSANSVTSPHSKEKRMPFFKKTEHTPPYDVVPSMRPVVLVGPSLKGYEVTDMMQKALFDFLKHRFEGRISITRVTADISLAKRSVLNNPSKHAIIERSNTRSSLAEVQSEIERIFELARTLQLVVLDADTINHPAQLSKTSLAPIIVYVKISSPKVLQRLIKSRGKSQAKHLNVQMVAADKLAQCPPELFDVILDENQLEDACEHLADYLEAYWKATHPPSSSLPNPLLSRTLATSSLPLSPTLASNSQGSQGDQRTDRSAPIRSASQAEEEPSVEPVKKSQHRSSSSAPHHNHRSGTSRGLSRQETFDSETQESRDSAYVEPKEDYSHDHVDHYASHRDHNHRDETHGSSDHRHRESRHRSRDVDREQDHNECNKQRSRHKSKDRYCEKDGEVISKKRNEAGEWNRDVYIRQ
T1 sequence (P54289 25-1103 partner): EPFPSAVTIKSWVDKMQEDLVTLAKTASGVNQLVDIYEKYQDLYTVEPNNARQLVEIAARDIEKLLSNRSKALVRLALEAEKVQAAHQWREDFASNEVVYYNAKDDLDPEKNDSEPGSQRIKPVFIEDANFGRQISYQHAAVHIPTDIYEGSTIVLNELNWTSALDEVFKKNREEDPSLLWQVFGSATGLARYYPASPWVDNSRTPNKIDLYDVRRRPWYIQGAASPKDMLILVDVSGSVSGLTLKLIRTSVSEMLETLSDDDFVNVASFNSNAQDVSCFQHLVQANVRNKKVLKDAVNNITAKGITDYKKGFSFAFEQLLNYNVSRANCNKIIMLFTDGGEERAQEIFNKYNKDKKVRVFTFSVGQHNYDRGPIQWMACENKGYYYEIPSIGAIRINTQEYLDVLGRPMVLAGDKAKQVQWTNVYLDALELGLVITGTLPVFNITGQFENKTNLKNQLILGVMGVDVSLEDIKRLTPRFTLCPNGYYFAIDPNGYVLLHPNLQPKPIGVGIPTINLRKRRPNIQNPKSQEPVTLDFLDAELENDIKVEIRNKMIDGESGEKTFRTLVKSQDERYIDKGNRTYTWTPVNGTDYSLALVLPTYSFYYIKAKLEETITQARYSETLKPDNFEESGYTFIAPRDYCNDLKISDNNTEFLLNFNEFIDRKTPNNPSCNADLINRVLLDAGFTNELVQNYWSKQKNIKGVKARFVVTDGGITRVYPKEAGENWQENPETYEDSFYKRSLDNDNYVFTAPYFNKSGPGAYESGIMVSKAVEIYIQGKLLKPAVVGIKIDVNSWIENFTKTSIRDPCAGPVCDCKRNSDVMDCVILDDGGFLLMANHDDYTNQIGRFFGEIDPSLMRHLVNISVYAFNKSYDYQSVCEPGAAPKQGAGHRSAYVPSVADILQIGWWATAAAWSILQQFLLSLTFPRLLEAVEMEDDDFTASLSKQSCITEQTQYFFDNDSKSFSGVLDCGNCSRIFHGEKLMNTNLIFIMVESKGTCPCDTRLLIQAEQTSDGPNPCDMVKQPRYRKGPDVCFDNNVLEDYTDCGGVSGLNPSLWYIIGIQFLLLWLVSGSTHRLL
Description: Cloned L-type calcium channels in CHO cells (PatchXpress patch clamp). The experiment is classed as cell-based. Particulars: FIG. 16. The procedure: Compound A stock solutions were prepared in dimethyl sulfoxide (DMSO) and stored frozen. Compound A concentrations were prepared fresh daily by diluting stock solutions into an appropriate HEPES-buffered physiological saline solution. Each test compound formulation was sonicated at room temperatrue for at least 20 minutes to facilitate dissolution. A glass-lined 96-well compound plate was loaded with the appropriate amounts of test and control solutions, and placed in the plate well of PatchXpress®. The effects of five concentrations were evaluated. Stock solutions of the positive control were prepared in batches and frozen. The positive control concentration was prepared fresh daily by diluting stock solutions into HB-PS. The final DMSO concentration was 0.3%.
Cells were maintained in tissue culture incubators per ChanTest SOP. […]
In preparation for a recording session, intracellular solution was loaded into the intracellular compartments of the planar electrode. After establishment of a whole-cell configuration, membrane currents were recorded using dual-channel patch clamp amplifiers in the PatchXpress® system. […] Onset and steady state block of hCav.1.2/β2/α2δ channels were measured using a stimulus voltage pattern consisting of a depolarizing test pulse at 10 s intervals from a −80 mV holding potential. […] Peak current was measured during the step to 10 mV. […]

Entries after “also recorded” stand apart in the source; their conditions may differ.

The values that follow come from US8524765B2, “Compounds that modulate intracellular calcium” (Calcimedica, Inc., priority 2007, dated 2013).

For orientation: IC50 means the concentration at which inhibition is half-maximal.

For the molecule `O=C(Nc1scc(-c2ccc(Br)cc2)c1C(=O)O)c1ccc(F)cc1` [Compound 1, 2-(4-fluorobenzamido)-4-(4-bromophenyl)thiophene-3-carboxylic acid], the IC50 is around 2500 nM with rat T cells and around 500 nM in the experiment with Jurkat T cells (Homo sapiens, Jurkat T cells stimulated with PHA+TPA, FIG. 7, read-out: IC50 for inhibition of IL-2 release). Besides, the “effect of combination with cyclosporin A on IL-2 secretion” value with Jurkat T cells (Jurkat T cells stimulated with PHA/TPA, Compound 1 together with cyclosporin A, FIG. 10) is “additive effects”. Besides, the “effect on STIM1-dependent Ca2+ entry” value in the experiment with HEK[STIM1] cells is “concentration dependent inhibition; also recorded: blocked”. Further, the “effect on recombinant Cav1.2 L-type Ca2+ channels” value on hCav.1.2/β2/α2δ channels was “inhibits”.
